# In patent US11104690B2, “Indazole derivatives useful as inhibitors of diacylglyceride O-acyltransferase 2” (Merck Sharp & Dohme Corp., priority 2016, dated 2021):
# Target: Human DGAT2 (Homo sapiens (Human), UniProt Q96PD7)
# Assay: DGAT2 Enzymatic Activity Assay (triolein formation, LC/MS/MS)
# Type: biochemical
# Settings: hDGAT2 Sf-9 membrane prep; 25 μM diolein, 10 μM oleoyl-CoA; room temperature
# Experimental: Sf-9 insect cells were maintained in Grace's insect cell culture medium with 10% heated-inactivated fetal bovine serum, 1% Pluronic F-68 and 0.14 μg/m Kanamycine sulfate in Erlenmeyer flasks at 28° C. in a shaker incubator. After infection with untagged hDGAT2 baculovirus at multiplicity of infection (MOI) 0.1 for 48 hours, cells were harvested. Cell pellets were suspended in buffer containing 10 mM Tris-HC (pH 7.5), 1 mM EDTA (pH 8.0), 250 mM sucrose and Complete Protease Inhibitor Cocktail (Roche Diagnostics Corp., Indianapolis, Ill.), and sonicated on ice. Membrane fractions were isolated by ultracentrifugation (100,000×g pellet), resuspended in the same buffer, and frozen (−80° C.) for later use. The protein concentration was determined with the BCA Protein Assay kit (Pierce Biotechnology Inc., Rockford, Ill.). Expression of protein levels was analyzed by immunoblotting with goat polyclonal DGAT2 antibody C-15 and donkey anti-goat IgG HRP (Santa Cruz Biotechnology, Inc., Santa Cruz, Calif.) followed by detection with ECL reagent (GE Healthcare, Piscataway, N.J.).
# LC/MS/MS analyses were performed using Thermal Fisher's LX4-TSQ Vantage system. This system consists of an Agilent binary high-performance liquid chromatography (HPLC) pumps and a TSQ Vantage triple quadrupole MS/MS instrument. For each sample, 2 μL samples from the top organic layer of in-plate liquid-liquid extraction were injected onto a Thermo Betabasic C4 column (2.1 mm×20 mm, 5 μm particle size). The samples were then eluted using the following conditions; mobile phase: MeOH/water with 0.1% ammonium format=92/8 (v/v), flow rate: 1 mL/min, temperature: 25 C. Data was acquired in positive mode using a heated electrospray ionization (HESI) interface. The operational parameters for the TSQ Vantage MS/MS instrument were a spray voltage of 3000 V, capillary temperature of 280° C., vaporizer temperature 400° C., shealth gas 60 arbitrary unit, Aux gas 40 arbitrary units, S-lens 113 and collision gas 0.16 Pascals. […] (SRM) chromatograms of triolein (Q1: 902.9>Q3:602.3) and internal standard ([…]) were collected for 40 sec. The peak area was integrated by Xcalibur Quan software. The ratio between the triolein generated in the reaction and spiked in internal standard was used to generate percentage inhibition and IC50 values. Compound percentage inhibition was calculated by the following formula: Inhibition %=1−[(compound response−low control)/(high control−low control)]×100%. Potent compounds were titrated and IC50 were calculated by 4 parameter sigmoidal curve fitting formula.
# DGAT2 activity was determined by measuring the amount of enzymatic product triolein (1,2,3-Tri(cis-9-octadecenoyl)glycerol) using the membrane prep mentioned above. The assay was carried out in deep well 384 plates in a final volume of 40 μL at room temperature. The assay mixture contained the following: assay buffer (100 mM Tris.Cl, pH 7.0, 20 mM MgCl2, 5% ethanol), 25 μM of diolein, 10 μM of oleoyl-CoA and 10 ng/μL of DGAT2 membrane.
# Chain of Human DGAT2 (Q96PD7 whole entry): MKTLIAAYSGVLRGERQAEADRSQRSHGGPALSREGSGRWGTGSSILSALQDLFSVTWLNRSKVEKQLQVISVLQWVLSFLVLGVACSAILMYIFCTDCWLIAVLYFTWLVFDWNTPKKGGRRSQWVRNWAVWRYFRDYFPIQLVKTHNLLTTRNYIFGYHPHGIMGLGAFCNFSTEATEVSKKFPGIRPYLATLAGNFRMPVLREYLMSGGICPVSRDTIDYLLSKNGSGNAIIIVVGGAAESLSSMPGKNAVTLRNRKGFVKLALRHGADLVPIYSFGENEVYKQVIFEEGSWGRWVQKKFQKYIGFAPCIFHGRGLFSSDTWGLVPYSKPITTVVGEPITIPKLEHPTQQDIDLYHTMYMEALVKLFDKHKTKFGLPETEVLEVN
row,IC50 [nM],SMILES
1,4.5,"CC1(NC(=O)c2ccc3c(-c4ccccc4Cl)nn(-c4ccc(F)cc4)c3c2)CCS(=O)(=O)C1 (single isomer, unassigned) [Example 1-A, 3-(2-Chlorophenyl)-1-(4-fluorophenyl)-N-(3-methyl-1,1-dioxidotetrahydrothiophen-3-yl)-1H-indazole-6-carboxamide]"
2,8.3,"CC1(NC(=O)c2ccc3c(-c4ccccc4Cl)nn(-c4ccc(F)cc4)c3c2)CCS(=O)(=O)C1 (single isomer, unassigned) [Example 1-B, 3-(2-chlorophenyl)-1-(4-fluorophenyl)-N-(3-methyl-1,1-dioxidotetrahydrothiophen-3-yl)-1H-indazole-6-carboxamide]"
3,6.4,"CC1(NC(=O)c2ccc3c(-c4cccc(C#N)c4)nn(-c4ccc(F)cc4)c3c2)CCS(=O)(=O)C1 (single isomer, unassigned) [Example 117-B, 3-(3-cyanophenyl)-1-(4-fluorophenyl)-N-(3-methyl-1,1-dioxidotetrahydrothiophen-3-yl)-1H-indazole-6-carboxamide]"
4,8.4,"CC1(NC(=O)c2ccc3c(-c4cc(C#N)ccc4Cl)nn(-c4ccc(F)cc4)c3c2)CCS(=O)(=O)C1 (single isomer, unassigned) [Example 119-A, 3-(2-chloro-5-cyanophenyl)-1-(4-fluorophenyl)-N-(3-methyl-1,1-dioxidotetrahydrothiophen-3-yl)-1H-indazole-6-carboxamide]"
5,2.5,"CC1(NC(=O)c2ccc3c(-c4cc(C#N)ccc4Cl)nn(-c4ccc(F)cc4)c3c2)CCS(=O)(=O)C1 (single isomer, unassigned) [Example 119-B, 3-(2-chloro-5-cyanophenyl)-1-(4-fluorophenyl)-N-(3-methyl-1,1-dioxidotetrahydrothiophen-3-yl)-1H-indazole-6-carboxamide]"
6,4.2,"N#Cc1ccc(Cl)c(-c2nn(-c3ccc(F)cc3)c3cc(C(=O)NC4CCS(=O)(=O)C4)ccc23)c1 (single isomer, unassigned) [Example 120-A, 3-(2-chloro-5-cyanophenyl)-N-(1,1-dioxidotetrahydrothiophen-3-yl)-1-(4-fluorophenyl)-1H-indazole-6-carboxamide]"
7,132,"CC1(NC(=O)c2ccc3c(-c4cc(C(N)=O)ccc4Cl)nn(-c4ccc(F)cc4)c3c2)CCS(=O)(=O)C1 (single isomer, unassigned) [Example 121-A, 3-(5-carbamoyl-2-chlorophenyl)-1-(4-fluorophenyl)-N-(3-methyl-1,1-dioxidotetrahydrothiophen-3-yl)-1H-indazole-6-carboxamide]"

# The remaining lines, values behind:
row,SMILES,IC50 [nM]
1,"CC1(NC(=O)c2ccc3c(-c4ccccc4Cl)nn(-c4nnc(C5CC5)s4)c3c2)CCS(=O)(=O)C1 (racemic) [Example 190, 3-(2-chlorophenyl)-1-(5-cyclopropyl-1,3,4-thiadiazol-2-yl)-N-(3-methyl-1,1-dioxidotetrahydrothiophen-3-yl)-1H-indazole-6-carboxamide]",45
2,"O=C(NC1CCS(=O)(=O)C1)c1ccc2c(-c3ccccc3Cl)nn(-c3ccc(F)cc3)c2c1 (single isomer, unassigned) [Example 2-A]",12
3,"O=C(NC1CCS(=O)(=O)C1)c1ccc2c(-c3ccccc3Cl)nn(-c3ccc(F)cc3)c2c1 (single isomer, unassigned) [Example 2-B, 3-(2-chlorophenyl)-N-(1,1-dioxidotetrahydrothiophen-3-yl)-1-(4-fluorophenyl)-1H-indazole-6-carboxamide]",303
4,"O=C(NC1CC[S+]([O-])C1)c1ccc2c(-c3ccccc3Cl)nn(-c3ccc(F)cc3)c2c1 (single isomer, unassigned) [Example 58-A, 3-(2-chlorophenyl)-1-(4-fluorophenyl)-N-(1-oxidotetrahydrothiophen-3-yl)-1H-indazole-6-carboxamide]",668
5,"O=C(NC1CC[S+]([O-])C1)c1ccc2c(-c3ccccc3Cl)nn(-c3ccc(F)cc3)c2c1 (single isomer, unassigned) [Example 58-B, 3-(2-chlorophenyl)-1-(4-fluorophenyl)-N-(1-oxidotetrahydrothiophen-3-yl)-1H-indazole-6-carboxamide]",608
